Publication PMC9585581, “Developing Photoaffinity Probes for Dopamine Receptor D2 to Determine Targets of Parkinson’s Disease Drugs” (ACS Chemical Neuroscience, 2022)
Values belong to the compound of their own block, whether it stands above or below them.

Columns and labels:
[1] = target: T1, human DRD2, long form (Homo sapiens, UniProt P14416); test: Intracellular Ca2+ mobilization assay (HEK293T stably expressing DRD2, chimeric G-protein Gqi5, calcium dye, confocal microscopy); type: cell-based; conditions: for activity in calcium flux assay (in words): calcium flux bioactivity
T1 construct: expressed in transfected cells; Gqi5 chimera transiently transfected
Experimental: Intracellular calcium measurement was used to determine G-protein-mediated signaling by DRD2. Because DRD2 is linked to the G-protein subtype Gi, agonist binding inhibits adenyl cyclase activity.[42] To mitigate this effect, we created an HEK293T cell line stably expressing human DRD2, long form, and a chimeric G-protein, Gqi, which alters the DRD2 receptor’s G-protein coupling so that signaling can occur through Gq, resulting in an intracellular calcium flux.[43] The assay is performed by first loading the cell line with a calcium-sensing dye. Binding of the ligand to the receptor results in an influx of calcium to the cytoplasm, which can be characterized in real time by monitoring the increase in dye fluorescence with confocal microscopy.
Figure 2 Intracellular calcium flux assay. HEK293T cell line stably expressing constructs for human DRD2 and a chimeric G-protein is loaded with calcium-sensing dye, […]. After dosing the probe, confocal microscopy is used to determine the calcium flux in the cell by change in dye fluorescence.
A stable HEK293T-derived cell line-expressing DRD2-Strep Tag II fusion was maintained in DMEM supplemented with 10% FBS, 100 U/mL penicillin, and 100 μg/mL streptomycin in a humidified atmosphere at 37 °C in 5% CO2. On day 1, cells were plated at a density of 4 × 10^4 cells/cm^2 in a poly-D-lysine-coated 18-well chambered coverslip (Ibidi). The following day (day 2), cells were transfected with a 10× solution of 3:1 mixture of Gqi5/Optifect Transfection Reagent (Thermo) in unsupplemented DMEM. On day 3, the transfection media was removed and calcium-sensitive dye loading was performed following the protocol of the Fluo-4 Direct Calcium Assay Kit (Invitrogen). 5× drug stimulation solutions were prepared in filter-sterilized HBSS. Once Fluo-4 loading was complete, a time series acquisition at a rate of 1 fps was recorded using a Zeiss LSM 980 with Airyscan 2. Basal fluorescence was recorded for 20 s, followed by the addition of drug solution to a 1× final concentration and acquisition for an additional 40 s. Results in the form of fold fluorescence increase over basal were averaged over 50 cells in ImageJ (NIH), and GraphPad Prism was used for the analysis of data.

[2] = cited from earlier work
[3] = target: T2, DRD2 (Homo sapiens, UniProt P14416); test: PRESTO-TANGO β-arrestin recruitment assay (HTLA cells transfected with DRD2-TANGO, luciferase readout); type: cell-based; set-up: TEV protease site and fused transcription factor (TANGO module); expressed in transfected cells; host or cells: HTLA cells (gift of G. Barnea), transiently transfected; conditions: for activity in β-arrestin recruitment (in words): PRESTO-TANGO
Description: To characterize the response of the β-arrestin effector pathway to our ligands, we used the Parallel-Receptor-ome Expression and Screening via Transcriptional Output TANGO (PRESTO-TANGO) assay developed in the Roth lab.[44],[45] This assay uses luciferase activity to monitor β-arrestin recruitment by DRD2 (Figure 3a).
Figure 3 β-Arrestin recruitment analysis. (a) PRESTO-TANGO assay schematic: a ligand binds a chimeric DRD2 receptor, which then recruits β-arrestin fused with a TEV protease. The protease cuts a site between the receptor and a fused transcription factor, which then transits to the […] to initiate transcription of a luciferase gene. The luciferase activity is subsequently quantified.
HTLA cells were a gift from the laboratory of G. Barnea and were maintained in DMEM supplemented with 10% FBS, 100 U/mL penicillin, 100 μg/mL streptomycin, 2 μg/mL puromycin, 100 μg/mL hygromycin B, and 100 μg/mL G418 in a humidified atmosphere at 37 °C in 5% CO2. On day 1, cells were plated at a density of 1 × 10^5 cells/cm^2 in a black wall, clear-bottom 96-well plate (Nunc). The following day (day 2), cells were transfected with a 10× solution of 3:1 mixture of DRD2-TANGO/Optifect Transfection Reagent (Thermo) in unsupplemented DMEM. On day 3, 1× drug stimulation solutions were prepared in filter-sterilized unsupplemented DMEM. The transfection media was shaken or aspirated from the wells, and drug stimulation solutions were gently added. On day 4, drug solutions were removed from one well every 10 s (to maintain consistency of incubation time) and 50 μL per well of Bright-Glo solution (Promega) diluted 20-fold in HBSS was added. After incubation for 2 min at room temperature, luminescence was counted with an integration time of 10 s in a Spectramax i3x plate reader (Molecular Devices).

[4] = tested on: Dopamine receptor D1; conditions: stated without reference; cited from earlier work
[5] = target: T2, DRD2; test: Western blot analysis of DRD2-probe binding with competition by parent pharmacophore; set-up: expressed in transfected cells; conditions: probe 100 nm; membrane fraction enriched via Strep Tag II
Description: To observe the photo-cross-linking of DRD2 at the protein level, we analyzed the colocalization of DRD2 by clicking a fluorophore on the probe and performing Western blots. We further observed the competition with the parent pharmacophore of each probe and the ability of a negative control benzophenone (16) to cross-link to DRD2. Our DRD2-expressing cells or unmodified 293T cells (control group) were suspended in media, treated with the probe at a 100 nm concentration, and photo-cross-linked. The cells were then lysed, and the membrane fraction was separated and enriched for DRD2 by pulldown of the Strep Tag II fusion using magnetic beads. After “clicking” a fluorescent tag to the probe, the membrane fraction was run on an SDS-PAGE gel, transferred to a nitrocellulose membrane, and treated with antibodies against DRD2 and Strep Tag II. […] We also observed many nonspecific binding bands for the probe, which is consistent with our other studies, as well as the observations of the field when it relates to photo-cross-linking groups. […] With this confirmation, we proceeded to proteomic analysis of probe interactions.
Figure 6 Photo-cross-linking of probes 5 and 7 to DRD2 visualized with Western blot. Lanes 1–5 correspond to samples with probe 5 at 100 nm, lanes 6–10 correspond to samples treated with probe 7 at 100 nm, and lanes 11–14 correspond to samples treated with negative control probe 16. Lanes: 1, 6, and 11 are the anti-DRD2 antibody channel, lanes 2, 3, 7, 8, and 12 are fluorescence of the Alexa Fluor 555 clicked to the probes 5, 7, or 16, lanes 4, 9, and 13 are the anti-Strep Tag antibody channel, and lanes 5, 10, and 14 are the overlaid channels for the respective probes.
A stable HEK293T-derived cell line-expressing DRD2-Strep Tag II fusion was maintained in DMEM supplemented with 10% FBS, 100 U/mL penicillin, and 100 μg/mL streptomycin in a humidified atmosphere at 37 °C in 5% CO2. Cells were plated at a density of 4 × 10^4 cells/cm^2 in T300 tissue culture flasks (CellTreat) and allowed to grow to an 80% confluency. At confluency, media was removed and cells were washed once with cold HBSS, followed by incubation for 15 min in cold HBSS with 0.53 mM EDTA. Following incubation, cells were scraped off of the bottom of the flask and the cell suspension was transferred to a 15 mL conical tube and then pelleted at 500g for 5 min. The supernatant was removed, and the cell pellet was resuspended in HBSS followed by centrifugation at 500g for 5 min. […] The supernatant of the cell pellet was removed, and the cells were resuspended in probe solution and incubated at room temperature for 2 min followed by centrifugation at 500g for 5 min. The cell pellet was resuspended in either HBSS or 50 μM competitor solution in HBSS and irradiated with a 365 nm UV lamp (8 W, 2 cm distance) for 30 min at room temperature. The cells were then pelleted at 500g for 5 min, and the supernatant was removed. Membrane fractionation was performed following the MEM-PER Membrane Protein Extraction Kit (Thermo). The solubilized membrane fraction was incubated with hydrophilic streptavidin magnetic beads (NEB) for 1 h at room temperature. The flow-through was removed, and the beads were washed twice with PBS. […]

T1 sequence (P14416 whole entry): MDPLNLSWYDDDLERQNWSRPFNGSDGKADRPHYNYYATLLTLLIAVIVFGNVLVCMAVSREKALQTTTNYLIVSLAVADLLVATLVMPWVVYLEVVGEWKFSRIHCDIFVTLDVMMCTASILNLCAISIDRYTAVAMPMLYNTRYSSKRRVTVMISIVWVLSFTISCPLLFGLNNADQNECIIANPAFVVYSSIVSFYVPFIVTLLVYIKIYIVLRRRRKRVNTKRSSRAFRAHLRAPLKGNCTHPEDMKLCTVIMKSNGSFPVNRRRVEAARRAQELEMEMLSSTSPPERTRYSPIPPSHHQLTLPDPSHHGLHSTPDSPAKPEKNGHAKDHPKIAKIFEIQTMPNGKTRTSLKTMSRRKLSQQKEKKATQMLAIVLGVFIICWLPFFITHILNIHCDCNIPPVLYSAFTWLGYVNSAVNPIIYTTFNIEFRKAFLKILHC
T2 sequence (P14416 whole entry, the tested form may be a part): as the sequence (P14416 whole entry) above

- activity in calcium flux assay (in words) [1]: greatly diminished activity
SMILES: C#CCCC1(CCC(=O)N[C@H]2CCc3nc(N)sc3C2)N=N1 [Compound 8, (S)-N-(2-Amino-4,5,6,7-tetrahydrobenzo[d]thiazol-6-yl)-3-(3-(but-3-yn-1-yl)-3H-diazirin-3-yl)propanamide]

- activity in calcium flux assay (in words) [1]: greatly diminished activity
SMILES: C#CCCC1(CCC(=O)N(CCC)CCc2cccc3c2CC(=O)N3)N=N1 [Compound 4, 3-(3-(But-3-yn-1-yl)-3H-diazirin-3-yl)-N-(2-(2-oxoindolin-4-yl)ethyl)-N-propylpropanamide]

- activity in β-arrestin recruitment (in words) [3]: low nanomolar activity
SMILES: CCCN[C@H]1CCc2nc(N)sc2C1 [pramipexole]
- patients experiencing adverse drug reactions [2]: ≤ 74%
- binding to dopamine receptor D1 (in words) [4]: bound poorly

- activity in β-arrestin recruitment (in words) [3]: low nanomolar activity
- EC50 ([3]; PRESTO-TANGO β-arrestin recruitment, luciferase activity, Hill slope of 1.0): 6.14 nM
- EC50 ([1]; Ca assay, HEK293T stably expressing human DRD2 and chimeric G-protein, Hill slope of 1.0): 124 nM
SMILES: CCCN(CCC)CCc1cccc2c1CC(=O)N2 [ropinirole, reference compound]

SMILES: C#CCOc1ccc(C(=O)c2ccc(CN)cc2)cc1 [Compound 16, reference compound]
- photo-cross-linking / colocalization with DRD2 band (Western blot) [5]: did not show colocalization with the DRD2 band
